Data reported in patent publication US20230278972A1, “SUBSTITUTED HALOALKYL SULFONANILIDE HERBICIDES” (FMC Corporation, priority 2020, published 2023).

Key:
Type in all cases: in vivo
[1] = tested on: barnyardgrass (Echinochloa crus-galli); experiment: Test A preemergence, barnyardgrass; conditions: Preemergence, 0 to 100 scale (0 no effect, 100 complete control)
How it was run: (§1)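 Preemergence: seeded pots of loam plus sand received a directed soil spray. Postemergence: seedlings at one to two leaves, 2 to 10 cm high, were oversprayed. Each compound was formulated in a non-phytotoxic solvent mix that included a surfactant.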

kochia (Bassia scoparia) [2] = experiment: Test A preemergence, kochia; conditions: Preemergence, 0 to 100 scale (0 no effect, 100 complete control)
How it was run: as §1

[3] = tested on: ragweed (common ragweed, Ambrosia artemisiifolia); experiment: Test A preemergence, ragweed; conditions: Preemergence, 0 to 100 scale (0 no effect, 100 complete control)
How it was run: as §1

[4] = tested on: Ryegrass, Italian (Italian ryegrass, Lolium multiflorum); experiment: Test A preemergence, Ryegrass, Italian; conditions: Preemergence, 0 to 100 scale (0 no effect, 100 complete control)
How it was run: as §1

[5] = tested on: Foxtail, Giant (giant foxtail, Setaria faberi); experiment: Test A preemergence, Foxtail, Giant; conditions: Preemergence, 0 to 100 scale (0 no effect, 100 complete control)
How it was run: as §1

[6] = tested on: pigweed (Amaranthus retroflexus); experiment: Test A preemergence, pigweed; conditions: 0 to 100 scale (0 no effect, 100 complete control)
How it was run: (§2)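 Directed soil spray at planting gave the preemergence treatment, while foliar application to one- to two-leaf seedlings (2–10 cm) gave the postemergence one; pots held a loam and sand mixture and chemicals were carried in a non-phytotoxic solvent with surfactant.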

[7] = tested on: barnyardgrass (Echinochloa crus-galli); experiment: Test A postemergence, barnyardgrass; conditions: Postemergence, 0 to 100 scale (0 no effect, 100 complete control); for Plant response rating, Barnyardgrass: 125 g ai/ha; for Barnyardgrass plant response rating: 500 g ai/ha, visual injury vs untreated controls after approx. 10 days
How it was run: as §2

kochia (Bassia scoparia) [8] = experiment: Test A postemergence, kochia; conditions: Postemergence, 0 to 100 scale (0 no effect, 100 complete control); for Plant response rating, Kochia: 125 g ai/ha; for Kochia plant response rating: 500 g ai/ha, visual injury vs untreated controls after approx. 10 days
How it was run: as §1

[9] = tested on: ragweed (common ragweed, Ambrosia artemisiifolia); experiment: Test A postemergence, ragweed; conditions: Postemergence, 0 to 100 scale (0 no effect, 100 complete control); for Plant response rating, Ragweed: 125 g ai/ha; for Ragweed plant response rating: 500 g ai/ha, visual injury vs untreated controls after approx. 10 days
How it was run: as §1

[10] = tested on: Ryegrass, Italian (Italian ryegrass, Lolium multiflorum); experiment: Test A postemergence, Ryegrass, Italian; conditions: Postemergence, 0 to 100 scale (0 no effect, 100 complete control); for Plant response rating, Ryegrass, Italian: 125 g ai/ha; for Ryegrass, Italian plant response rating: 500 g ai/ha, visual injury vs untreated controls after approx. 10 days
How it was run: as §1

[11] = tested on: Foxtail, Giant (giant foxtail, Setaria faberi); experiment: Test A postemergence, Foxtail, Giant; conditions: Postemergence, 0 to 100 scale (0 no effect, 100 complete control); for Plant response rating, Foxtail, Giant: 125 g ai/ha; for Foxtail, Giant plant response rating: 500 g ai/ha, visual injury vs untreated controls after approx. 10 days
How it was run: as §1

[12] = tested on: pigweed (Amaranthus retroflexus); experiment: Test A postemergence, pigweed; conditions: Postemergence, 0 to 100 scale (0 no effect, 100 complete control); for Plant response rating, Pigweed: 125 g ai/ha; for Pigweed plant response rating: 500 g ai/ha, visual injury vs untreated controls after approx. 10 days
How it was run: as §1

[13] = tested on: wheat (Triticum aestivum); experiment: Test A postemergence, wheat; conditions: Postemergence, 0 to 100 scale (0 no effect, 100 complete control); for Plant response rating, Wheat: 125 g ai/ha; for Wheat plant response rating: 500 g ai/ha, visual injury vs untreated controls after approx. 10 days
How it was run: as §2

corn (Zea mays) = experiment: Test A postemergence, corn; conditions: Postemergence, 0 to 100 scale (0 no effect, 100 complete control); for Plant response rating, Corn: 125 g ai/ha; for Corn plant response rating: 500 g ai/ha, visual injury vs untreated controls after approx. 10 days
How it was run: as §1

[14] = tested on: blackgrass (Alopecurus myosuroides); experiment: Test A postemergence, blackgrass; conditions: Postemergence, 0 to 100 scale (0 no effect, 100 complete control); for Plant response rating, Blackgrass: 125 g ai/ha; for Blackgrass plant response rating: 500 g ai/ha, visual injury vs untreated controls after approx. 10 days
How it was run: as §1

[15] = tested on: galium (catchweed bedstraw, Galium aparine); experiment: Test A postemergence, galium; conditions: Postemergence, 0 to 100 scale (0 no effect, 100 complete control); for Plant response rating, Galium: 125 g ai/ha; for Galium plant response rating: 500 g ai/ha, visual injury vs untreated controls after approx. 10 days
How it was run: as §2

[16] = 125 g ai/ha, visual injury, approx. 10 days

SMILES | Plant response rating, Barnyardgrass [1, 16] | Plant response rating, Barnyardgrass ([1]; 500 g ai/ha) | Plant response rating, Kochia (kochia (Bassia scoparia) [2]; [16]) | Plant response rating, Kochia (kochia (Bassia scoparia) [2]; 500 g ai/ha) | Plant response rating, Ragweed [3, 16] | Plant response rating, Ragweed ([3]; 500 g ai/ha) | Plant response rating, Ryegrass, Italian [4, 16] | Plant response rating, Ryegrass, Italian ([4]; 500 g ai/ha) | Plant response rating, Foxtail, Giant [5, 16] | Plant response rating, Foxtail, Giant ([5]; 500 g ai/ha) | Plant response rating, Pigweed [6, 16] | Plant response rating, Pigweed ([6]; 500 g ai/ha) | Plant response rating, Barnyardgrass [7] | Barnyardgrass plant response rating [7] | Plant response rating, Kochia (kochia (Bassia scoparia) [8]) | Kochia plant response rating (kochia (Bassia scoparia) [8]) | Plant response rating, Ragweed [9] | Ragweed plant response rating [9] | Plant response rating, Ryegrass, Italian [10] | Ryegrass, Italian plant response rating [10] | also measured
C#CCN(C)C(=O)c1cc(NS(=O)(=O)C(F)(F)F)c(C)cc1C [Compound 189] | 80 | 100 | 80 | 100 | 80 | 90 | 90 | 100 | 100 | 100 | 90 | 100 | 80 | 90 | 20 | 80 | 90 | 90 | 80 | 80 | Plant response rating, Foxtail, Giant [11]: 60; Foxtail, Giant plant response rating [11]: 90; Plant response rating, Pigweed [12]: 60; Pigweed plant response rating [12]: 90; Plant response rating, Wheat [13]: 50; Wheat plant response rating [13]: 70; Plant response rating, Corn (corn (Zea mays)): 20; Corn plant response rating (corn (Zea mays)): 80; Plant response rating, Blackgrass [14]: 30; Blackgrass plant response rating [14]: 20; Plant response rating, Galium [15]: 90; Galium plant response rating [15]: 90
Cc1c(NS(=O)(=O)C(F)(F)F)cc(C(=O)N2CCCCC2)c(C)c1F [Compound 191] | 100 | 100 | 90 | 90 | 60 | 100 | 70 | 100 | 100 | 100 | 100 | 100 | 0 | 30 | 0 | 20 | 20 | 60 | 30 | 60 | Plant response rating, Foxtail, Giant [11]: 0; Foxtail, Giant plant response rating [11]: 20; Plant response rating, Pigweed [12]: 20; Pigweed plant response rating [12]: 70; Plant response rating, Wheat [13]: 30; Wheat plant response rating [13]: 60; Plant response rating, Corn (corn (Zea mays)): 0; Corn plant response rating (corn (Zea mays)): 10; Plant response rating, Blackgrass [14]: 0; Blackgrass plant response rating [14]: 0; Plant response rating, Galium [15]: 70; Galium plant response rating [15]: 90
Cc1cc(C)c(C(=O)N2CCC3(CC2)OCCCO3)cc1NS(=O)(=O)C(F)(F)F [Compound 194] | 90 | 90 | 40 | 90 | 80 | 90 | 30 | 100 | 80 | 100 | 90 | 100 | 0 | 80 | 20 | 40 | 60 | 90 | 0 | 50 | Plant response rating, Foxtail, Giant [11]: 10; Foxtail, Giant plant response rating [11]: 80; Plant response rating, Pigweed [12]: 0; Pigweed plant response rating [12]: 50; Plant response rating, Wheat [13]: 0; Wheat plant response rating [13]: 60; Plant response rating, Corn (corn (Zea mays)): 0; Corn plant response rating (corn (Zea mays)): 0; Plant response rating, Blackgrass [14]: 0; Blackgrass plant response rating [14]: 0; Plant response rating, Galium [15]: 70; Galium plant response rating [15]: 90
Cc1cc(C)c(C(=O)N2CCC3(CCCCC3)CC2)cc1NS(=O)(=O)C(F)(F)F [Compound 195] | 60 | 90 | 0 | 0 | 0 | 0 | 20 | 90 | 70 | 90 | 60 | 80 | 0 | 0 | 0 | 0 | 0 | 50 | 0 | 0 | Plant response rating, Foxtail, Giant [11]: 0; Foxtail, Giant plant response rating [11]: 0; Plant response rating, Pigweed [12]: 0; Pigweed plant response rating [12]: 0; Plant response rating, Wheat [13]: 0; Wheat plant response rating [13]: 0; Plant response rating, Corn (corn (Zea mays)): 20; Corn plant response rating (corn (Zea mays)): 0; Plant response rating, Blackgrass [14]: 0; Blackgrass plant response rating [14]: 0; Plant response rating, Galium [15]: 10; Galium plant response rating [15]: 20
Cc1cc(Cl)c(NS(=O)(=O)C(F)(F)F)cc1C1=NOC(C)(C)C1 [Compound 203] | 90 | 90 | 60 | 90 | 80 | 90 | 50 | 100 | 30 | 100 | 60 | 100 | 60 | 80 | 40 | 80 | 70 | 90 | 0 | 60 | Plant response rating, Foxtail, Giant [11]: 0; Foxtail, Giant plant response rating [11]: 50; Plant response rating, Pigweed [12]: 20; Pigweed plant response rating [12]: 60; Plant response rating, Wheat [13]: 40; Wheat plant response rating [13]: 70; Plant response rating, Corn (corn (Zea mays)): 10; Corn plant response rating (corn (Zea mays)): 60; Plant response rating, Blackgrass [14]: 20; Blackgrass plant response rating [14]: 30; Plant response rating, Galium [15]: 80; Galium plant response rating [15]: 90
